Data as given in patent US7514438B2, “Melanin concentrating hormone receptor antagonist” (Amgen, Inc., priority 2003, dated 2009).
Where two headings read alike, the source gives them in different places.

Legend:
[1] = molecular target: T1, rat MCH1 receptor (Rattus norvegicus, UniProt P97639); assay: rMCH FLIPR calcium mobilization assay (CHOK1-Gqi cells); format: cell-based; parameters: expressed in transfected cells; host or cells: CHOK1-Gqi; details: CHOK1-Gqi cells, rat MCH1 receptor; 100 μM or less list; read-out: Ki in the rMCH FLIPR assay
T1 sequence (P97639 whole entry): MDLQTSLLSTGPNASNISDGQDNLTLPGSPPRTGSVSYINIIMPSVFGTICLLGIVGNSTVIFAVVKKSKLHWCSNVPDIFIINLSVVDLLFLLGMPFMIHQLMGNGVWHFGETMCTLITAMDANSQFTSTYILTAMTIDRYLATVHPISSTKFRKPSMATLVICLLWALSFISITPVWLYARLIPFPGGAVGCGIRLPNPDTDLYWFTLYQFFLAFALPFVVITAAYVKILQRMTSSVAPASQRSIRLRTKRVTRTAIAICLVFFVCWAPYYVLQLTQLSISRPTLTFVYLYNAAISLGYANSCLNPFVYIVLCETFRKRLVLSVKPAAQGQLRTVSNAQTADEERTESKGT
Protocol: Pharmacological analyses were conducted using either a HT-PS100 device (Axiom Biotechnologies, San Diego, Calif.), which provides high-resolution dose-response fluorometric measurements of [Ca^++]i mobilization, or using a FLIPR® device (Molecular Devices, Sunnyvale, Calif.).
Materials: Pharmacological analysis was conducted using a FLIPR® device (Molecular Devices, Sunnyvale, Calif.). CHOK1-Gqi cells were stably transfected with the rat MCH1 receptor and maintained under G418 antibiotic pressure. FLIPR® assay buffer consisted of phenol red-free DMEM+2.5 mM probenecid. […]. Test compounds were prepared as 10 mM stocks in 100% DMSO and diluted to a top end working concentration of 10 μM in 96 well black, flat bottom, collagen-I coated plates (Becton Dickinson, Bedford, Mass.).
Methods: CHOK1-Gqi cells stably expressing MCH1R were maintained in Dulbeco's modified Eagle's medium (GIBCO/Life Technologies, Rockville, Md.) supplemented with 2 mM glutamine and 10% dialyzed fetal bovine serum (HyCLone, Logan, Utah) at 37° C., 5% CO2. Cells were harvested by 10′ treatment with Versene (GIBCO/Life Technologies) followed by trituration, washing twice with cold (4° C.) hybridoma medium (Serum/Protein free, with L-glutamine, sodium bicarbonate, MOPS buffer) (Sigma-Aldrich Corp, St. Louis, Mo.) and replated onto 96 well black, flat bottom, collagen-I coated plates to a density of 10,000 cells/well. The cells were then loaded with the fluorescent calcium indicator Fura-2 (Molecular Probes, Eugene, Oreg.) at 1.6 μM for 60′ at room temperature. The loaded cells were then washed twice with 90 μl/well of wash buffer (1×HBSS, 20 mM HEPES, 2.5 mM probenecid).
Receptor-stimulated intracellular calcium responses were detected using FLIPR® by monitoring increases in the Fura-2 fluorescence response.
Test compounds were screened for MCH1R activity in the FLIPR® for both agonist and antagonist action. Agonist mode challenges were conducted at a maximum gradient concentration of 1 μM. Antagonist activity was tested by 10 min pre-incubation of cells at a compound concentration of defined to be 300× the EC50 of MCH (typically 1 μM), with subsequent introduction of MCH at a concentration 5-fold of EC50 as determined in preliminary experiments. […].
Several fixed concentrations of antagonist compounds were prepared in 10-fold increments, and presented to the cells in a gradient of increasing MCH concentration. Values for compound pA2 were calculated by linear regression of MCH EC50s as a function of antagonist concentration.

[2] = molecular target: T2, human MCH 1 receptor (hMCH1R) (Homo sapiens, UniProt Q99705); assay: 125I-MCH ligand binding assay, hMCH; details: HEK 293 membranes, 0.2 nM 125I native-MCH, read-out: IC50 in the hMCH binding assay
T2 construct: expressed in transfected cells; host or cells: HEK 293 (membranes)
T2 sequence (Q99705 whole entry): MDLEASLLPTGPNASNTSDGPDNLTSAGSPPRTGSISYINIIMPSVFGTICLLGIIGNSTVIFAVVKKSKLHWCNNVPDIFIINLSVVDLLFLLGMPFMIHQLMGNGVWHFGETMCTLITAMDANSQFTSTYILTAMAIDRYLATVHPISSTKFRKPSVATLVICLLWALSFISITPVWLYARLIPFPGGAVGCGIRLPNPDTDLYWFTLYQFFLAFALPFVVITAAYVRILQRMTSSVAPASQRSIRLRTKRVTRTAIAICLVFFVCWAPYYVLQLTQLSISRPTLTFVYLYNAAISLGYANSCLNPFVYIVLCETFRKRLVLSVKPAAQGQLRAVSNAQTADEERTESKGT
Outline: (§1)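 HEK293 membranes expressing rat or human MCH1R (100 µg tissue) were incubated for 90 min at 30 °C with 0.2 nM 125I-native-MCH and test compound in HEPES/MgCl2/BSA buffer with protease inhibitors, pH 7.4. Non-specific binding used 1 µM cold MCH. Filter-bound radioactivity gave IC50 by nonlinear regression.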

[3] = molecular target: T3, human MCH receptor (Homo sapiens, UniProt Q99705); assay: hMCH FLIPR calcium mobilization assay; format: cell-based; details: read-out: Ki in the hMCH FLIPR assay
T3 construct: expressed in transfected cells
T3 sequence (Q99705 whole entry): as above

[4] = molecular target: T1, rat MCH1 receptor; assay: HT-PS100 calcium mobilization functional assay; format: cell-based; parameters: expressed in transfected cells; details: HEK 293 cells stably transfected with rat MCH1 receptor; 100 nM or less list; read-out: Ki in the HT-PS100 assay
[5] = molecular target: T4, rat MCH 1 receptor (rMCH1R) (Rattus norvegicus, UniProt P97639); assay: 125I-MCH ligand binding assay, rMCH; details: HEK 293 membranes, 0.2 nM 125I native-MCH, read-out: IC50 in the rMCH binding assay
T4 construct: expressed in transfected cells; host or cells: HEK 293 (membranes)
T4 sequence (P97639 whole entry): as the sequence (P97639 whole entry) above
Outline: as §1

Ki [1] | IC50 ([2]; 100 μM or less list) | Ki ([3]; 100 μM or less list) | Ki [4] | IC50 ([5]; 100 μM or less list) | IC50 ([2]; 100 nM or less list) | IC50 ([5]; 100 nM or less list) | Ki ([3]; 100 nM or less list) | SMILES
≤ 100 µM | ≤ 100 µM | ≤ 100 µM | ≤ 0.1 µM | ≤ 100 µM |  |  |  | Cc1cccc(C)c1-n1nnnc1[C@H](c1ccc(Cl)c(Cl)c1)N1CCN(C/C=C/c2ccccc2)CC1 (racemic) [Compound 60, 1-{(3,4-dichlorophenyl)-[1-(2,6-dimethylphenyl)-1H-tetrazol-5-yl]methyl}-4-(3-phenylallyl)piperazine]
≤ 100 µM | ≤ 100 µM | ≤ 100 µM | ≤ 0.1 µM | ≤ 100 µM | ≤ 0.1 µM | ≤ 0.1 µM |  | Cc1cccc(C)c1-n1nnnc1[C@H](c1ccccc1)N1CCN(C/C=C/c2ccccc2)CC1 [Compound 1, 1-{[1-(2,6-dimethyiphenyl)-1H-tetrazol-5-yl]phenylmethyl}-4-(3-phenylallyl)piperazine]
≤ 100 µM | ≤ 100 µM | ≤ 100 µM | ≤ 0.1 µM | ≤ 100 µM | ≤ 0.1 µM |  | ≤ 0.1 µM | Cc1cccc(C)c1-n1nnnc1[C@H](c1ccccc1)N1CCN(C/C=C/c2ccccc2)CC1 (racemic) [Compound 4, 1-{[1-(2,6-dimethyiphenyl)-1H-tetrazol-5-yl]phenylmethyl}-4-(3-phenylallyl)piperazine]
≤ 100 µM | ≤ 100 µM | ≤ 100 µM | ≤ 0.1 µM | ≤ 100 µM | ≤ 0.1 µM |  |  | COc1cccc([C@@H](c2nnnn2-c2c(C)cccc2C)N2CCN(C/C=C/c3ccccc3)CC2)c1 (racemic) [Compound 77, 1-[[1-(2,6-dimethylphenyl)-1H-tetrazol-5-yl]-(3-methoxyphenyl)methyl]-4-(3-phenylallyl)piperazine]
